Results published in publication PMC11699025 (Natural Products and Bioprospecting, 2025).
Several values for one entry are separate records, joined by “and”; a condition that tells them apart may be missing. Equal entries are not always repeated.

How the values were obtained:
Assay type in all cases: binding
[1] = target: SARS-CoV-2 Mpro F291A (Severe acute respiratory syndrome coronavirus 2, UniProt P0DTD1, F3554A)
[2] = target: SARS-CoV-2 PLpro Y268A (Severe acute respiratory syndrome coronavirus 2, UniProt P0DTD1, Y1831A)
[3] = target: SARS-CoV-2 Mpro Y126A (Severe acute respiratory syndrome coronavirus 2, UniProt P0DTD1, Y3389A)
[4] = target: SARS-CoV-2 PLpro Y273A (Severe acute respiratory syndrome coronavirus 2, UniProt P0DTD1, Y1836A)
[5] = target: SARS-CoV-2 PLpro K254A (Severe acute respiratory syndrome coronavirus 2, UniProt P0DTD1, K1817A)
[6] = target: SARS-CoV-2 PLpro T257A (Severe acute respiratory syndrome coronavirus 2, UniProt P0DTD1, T1820A)
[7] = target: SARS-CoV-2 Mpro K5A (Severe acute respiratory syndrome coronavirus 2, UniProt P0DTD1, K3268A)
[8] = target: SARS-CoV-2 PLpro F258A (Severe acute respiratory syndrome coronavirus 2, UniProt P0DTD1, F1821A)
[9] = target: SARS-CoV-2 PLpro Y264A (Severe acute respiratory syndrome coronavirus 2, UniProt P0DTD1, Y1827A)
[10] = target: SARS-CoV-2 Mpro R4A (Severe acute respiratory syndrome coronavirus 2, UniProt P0DTD1, R3267A)
[11] = target: SARS-CoV-2 Mpro F3A (Severe acute respiratory syndrome coronavirus 2, UniProt P0DTD1, F3266A)
[12] = target: SARS-CoV-2 PLpro E252A (Severe acute respiratory syndrome coronavirus 2, UniProt P0DTD1, E1815A)
[13] = target: SARS-CoV-2 PLpro D164A (Severe acute respiratory syndrome coronavirus 2, UniProt P0DTD1, D1727A)
[14] = target: SARS-CoV-2 PLpro Y251A (Severe acute respiratory syndrome coronavirus 2, UniProt P0DTD1, Y1814A)
[15] = target: SARS-CoV-2 Mpro N142A (Severe acute respiratory syndrome coronavirus 2, UniProt P0DTD1, N3405A)
[16] = target: SARS-CoV-2 Mpro E288A (Severe acute respiratory syndrome coronavirus 2, UniProt P0DTD1, E3551A)
[17] = target: SARS-CoV-2 PLpro V303A (Severe acute respiratory syndrome coronavirus 2, UniProt P0DTD1, V1866A)
[18] = target: SARS-CoV-2 PLpro R166A (Severe acute respiratory syndrome coronavirus 2, UniProt P0DTD1, R1729A)
[19] = target: SARS-CoV-2 PLpro L253A (Severe acute respiratory syndrome coronavirus 2, UniProt P0DTD1, L1816A)

## Cc1cc(O)c(O)c(Oc2cc(C)cc(O)c2Oc2cc(C)cc(O)c2O)c1 [Sydowiol B, sydowiol B]
[1]
  Tm value: 61.29 ± 0.01 (-0.08) ℃ and 61.37 ± 0.01 (0.00) ℃ and 61.44 ± 0.01 (0.07) ℃
  △Tm: 61.29 ± 0.01 (-0.08) ℃ and 61.37 ± 0.01 (0.00) ℃ and 61.44 ± 0.01 (0.07) ℃
[2]
  Tm value: 50.46 ± 0.65 (3.82) ℃
  △Tm: 50.46 ± 0.65 (3.82) ℃
[3]
  Tm value: 47.88 ± 0.22 (1.58) ℃
  △Tm: 47.88 ± 0.22 (1.58) ℃
[4]
  Tm value: 51.09 ± 0.23 (-0.85) ℃ and 50.59 ± 0.10 (-1.35) ℃ and 51.21 ± 0.00 (-0.73) ℃
  △Tm: 51.09 ± 0.23 (-0.85) ℃ and 50.59 ± 0.10 (-1.35) ℃ and 51.21 ± 0.00 (-0.73) ℃
[5]
  Tm value: 46.61 ± 0.16 (3.31) ℃ and 46.23 ± 0.29 (2.93) ℃
  △Tm: 46.61 ± 0.16 (3.31) ℃ and 46.23 ± 0.29 (2.93) ℃
[6]
  Tm value: 47.76 ± 0.27 (4.16) ℃
  △Tm: 47.76 ± 0.27 (4.16) ℃
[7]
  Tm value: 47.98 ± 0.07 (0.63) ℃
  △Tm: 47.98 ± 0.07 (0.63) ℃
[8]
  Tm value: 47.68 ± 0.06 °C
[9]
  Tm value: 46.21 ± 0.86 (0.01) ℃ and 45.93 ± 0.03 (-0.27) ℃ and 46.48 ± 0.43 (0.28) ℃
  △Tm: 46.21 ± 0.86 (0.01) ℃ and 45.93 ± 0.03 (-0.27) ℃ and 46.48 ± 0.43 (0.28) ℃
[10]
  Tm value: 54.54 ± 0.06 (0.84) ℃ and 54.25 ± 0.27 (0.55) ℃ and 54.16 ± 0.03 (0.46) ℃
  △Tm: 54.54 ± 0.06 (0.84) ℃ and 54.25 ± 0.27 (0.55) ℃ and 54.16 ± 0.03 (0.46) ℃
[11]
  Tm value: 53.05 ± 0.12 (1.05) ℃ and 52.84 ± 0.19 (0.84) ℃ and 53.05 ± 0.03 (1.05) ℃
  △Tm: 53.05 ± 0.12 (1.05) ℃ and 52.84 ± 0.19 (0.84) ℃ and 53.05 ± 0.03 (1.05) ℃
[12]
  Tm value: 44.10 ± 0.20 (0.75) ℃ and 45.88 ± 0.48 (2.53) ℃ and 47.86 ± 0.13 (4.51) ℃
  △Tm: 44.10 ± 0.20 (0.75) ℃ and 45.88 ± 0.48 (2.53) ℃ and 47.86 ± 0.13 (4.51) ℃
[13]
  Tm value: 44.58 ± 0.62 (2.03) ℃ and 45.84 ± 0.11 (3.29) ℃ and 46.83 ± 0.21 (4.28) ℃
  △Tm: 44.58 ± 0.62 (2.03) ℃ and 45.84 ± 0.11 (3.29) ℃ and 46.83 ± 0.21 (4.28) ℃
[14]
  Tm value: 47.78 ± 0.39 (2.41) ℃ and 46.46 ± 0.07 (1.09) ℃
  △Tm: 47.78 ± 0.39 (2.41) ℃ and 46.46 ± 0.07 (1.09) ℃
[15]
  Tm value: 58.18 ± 0.03 (5.56) ℃ and 57.22 ± 0.07 (4.60) ℃ and 56.43 ± 0.24 (3.81) ℃
  △Tm: 58.18 ± 0.03 (5.56) ℃ and 57.22 ± 0.07 (4.60) ℃ and 56.43 ± 0.24 (3.81) ℃
[16]
  Tm value: 54.03 ± 0.10 (1.14) ℃ and 53.21 ± 0.11 (0.32) ℃
  △Tm: 54.03 ± 0.10 (1.14) ℃ and 53.21 ± 0.11 (0.32) ℃
[17]
  Tm value: 52.24 ± 0.13 (5.12) ℃
  △Tm: 52.24 ± 0.13 (5.12) ℃
[18]
  Tm value: 50.86 ± 0.55 (3.18) ℃
  △Tm: 50.86 ± 0.55 (3.18) ℃
[19]
  Tm value: 50.09 ± 0.49 °C
